We go through two compounds from patent US8889666B2, “Quinolyl pyrrolo pyrimidyl condensed-ring compound and salt thereof” (Taiho Pharmaceutical Co., Ltd., priority 2012, dated 2014).

One test deals with T1, EGFR (WT) (Homo sapiens, UniProt P00533).
T1 construct: the cytoplasmic domain of human EGFR (WT); FLAG (N); made in house; host or cells: baculovirus expression system, insect Sf9 cells
The experiment in a line: EGFR (WT) kinase inhibitory activity (in vitro). Particulars: for IC50: cytoplasmic domain of human EGFR (WT), ATP 4.7 μM, substrate peptide 500 nM; for inhibitory activities for EGFR (WT) compared with the mutant EGFR proteins, in words: summary of Table 1. Type of test: biochemical. The procedure: (§1) The measurement method was as follows. The compounds I-1, I-2, I-3, I-4, I-5, I-6, I-7, I-8, and I-9 were each dissolved in dimethylsulfoxide (DMSO), and then each serially diluted with DMSO. Next, the EGFR (T790M/L858R) protein, substrate peptide (final concentration: 250 nM), magnesium chloride (final concentration: 10 mM), manganese chloride (final concentration: 10 mM), ATP (final concentration: 1 μM), and the diluted DMSO solution of each compound (final concentration of DMSO: 2.5%) were added to a kinase reaction buffer (Carna Biosciences, Inc.), and the mixture was incubated at 25° C. for 120 minutes for kinase reaction. EDTA was added thereto to a final concentration of 24 mM to thereby terminate the reaction. Then, a detection solution containing europium (Eu)-labeled anti-phosphorylated tyrosine antibody PT66 (PerkinElmer) and SureLight APC-SA (PerkinElmer) was added, and the resulting mixture was allowed to stand at room temperature for 2 hours or more. Finally, the intensity of fluorescence under the excitation light with a wavelength of 337 nm was measured by a PHERAstar FS (BMG LABTECH) at two wavelengths of 620 nm and 665 nm. The level of phosphorylation of each test sample was calculated from the fluorescence intensity ratio of the two wavelengths in DMSO control and in the test sample, and the compound concentration at which phosphorylation was inhibited by 50% was determined as the IC50 value (nM) of each compound.
The inhibitory activities of the compounds I-1, I-2, I-3, I-4, I-5, I-6, I-7, I-8, and I-9 on EGFR (WT) kinase were measured.
The materials were as follows. As the EGFR (WT), the cytoplasmic domain of human EGFR (WT) in which a FLAG tag was fused to the N-terminus was expressed in a baculovirus expression system using insect Sf9 cells, and purified with anti-FLAG antibody agarose (Sigma-Aldrich). The final concentration of the substrate peptide was 500 nM, and the final concentration of ATP was 4.7 μM. As for other conditions, the same materials and methods as those used in the measurement of EGFR (T790M/L858R) kinase inhibitory activity were used to determine the IC50 value (nM) of each compound.

The subject of test [1] is lung adenocarcinoma cell line HCC827 expressing EGFR (d746-750). The experiment in a line: Growth inhibitory activity, EGFR (d746-750)-expressing cell line. Particulars: Homo sapiens, HCC827, 72 h; three days culture, CellTiter-Glo. Type of test: cell-based. Here is the method:
1) A lung adenocarcinoma cell line NCI-H1975 expressing EGFR (T790M/L858R), 2) a lung adenocarcinoma cell line HCC827 expressing EGFR (d746-750), and 3) a human epidermoid carcinoma cell line A431 expressing EGFR (WT) were each suspended in the medium recommended by ATCC. The cell suspension was seeded in each well of a 384-well flat microplate or 96-well flat plate, and cultured in an incubator containing 5% carbon dioxide gas at 37° C. for one day. The compound of the present invention and the reference compound were dissolved in DMSO, and then the DMSO solution of each test compound was diluted with DMSO to a concentration 200 times higher than the final concentration. The diluted DMSO solution of the test compound was diluted with the medium used to suspend each cell line, and the diluted solution was added to each well of the cell culture plate so that the final concentration of DMSO was 0.5%. […] The number of cells was measured at the time of initiation and termination of the culture by using a CellTiter-Glo Assay (produced by Promega) according to a protocol recommended by Promega. […]
(§2) T: Luminescence intensity of well to which test compound was added
(§3) C: Luminescence intensity of well to which test compound was not added
(§4) C0: Luminescence intensity of well measured before addition of test compound
(ATP-based viability assays read luminescence as a measure of living cells.)

The target of a further test is T2, EGFR (d746-750/T790M) (Homo sapiens, UniProt P00533, DEL746-750/T790M).
T2 construct: purchased Carna Biosciences, Inc
The experiment in a line: EGFR (d746-750/T790M) kinase inhibitory activity (in vitro). The class given is biochemical. The conditions noted are these: recombinant human protein, ATP 1.5 μM. Here is the method: as §1
2) Measurement of EGFR (d746-750/T790M) Kinase Inhibitory Activity
The inhibitory activities of the compounds I-1, I-2, I-3, I-4, I-5, I-6, I-7, I-8, and I-9 for EGFR (d746-750/T790M) kinase were measured.
The materials were as follows. The EGFR (d746-750/T790M) was a purified recombinant human EGFR (d746-750/T790M) protein purchased from Carna Biosciences, Inc. The final concentration of ATP was 1.5 μM. As for other conditions, the same materials and methods as those used in the measurement of EGFR (T790M/L858R) kinase inhibitory activity were used to determine the IC50 value (nM) of each compound.

Another test addresses T3, EGFR (T790M/L858R) (Homo sapiens, UniProt P00533, L858R/T790M).
T3 construct: purchased Carna Biosciences, Inc
The experiment in a line: EGFR (T790M/L858R) kinase inhibitory activity (in vitro). The class given is biochemical. Particulars: for IC50: recombinant human protein, ATP 1 μM, 120 minutes; for inhibitory activities for EGFR (L858R), EGFR (d746-750), EGFR (T790M/L858R) and EGFR (d746-750/T790M), in words: summary of Table 1, all four mutant kinases. Here is the method: 1) Measurement of EGFR (T790M/L858R) Kinase Inhibitory Activity
The inhibitory activities of the compounds I-1, I-2, I-3, I-4, I-5, I-6, I-7, I-8, and I-9 for EGFR (T790M/L858R) kinase were measured.
The materials were as follows. The substrate peptide was a biotinylated peptide (biotin-EEPLYWSFPAKKK) synthesized by reference to the amino acid sequence of FL-Peptide 22 (a reagent for LabChip® Series; Caliper Life Sciences, Inc.). The EGFR (T790M/L858R) was a purified recombinant human EGFR (T790M/L858R) protein purchased from Carna Biosciences, Inc.
as §1

For test [2], the system named is lung adenocarcinoma cell line NCI-H1975 expressing EGFR (T790M/L858R). The experiment in a line: Growth inhibitory activity, EGFR (T790M/L858R)-expressing cell line. The conditions noted are these: for GI50: Homo sapiens, NCI-H1975, 72 h, three days culture, CellTiter-Glo; for growth-inhibitory activities for EGFR (d746-750)-expressing and EGFR (T790M/L858R)-expressing cells, in words: summary of Table 2, NCI-H1975 and HCC827. Type of test: cell-based, human. Here is the method: (§5) 1) A lung adenocarcinoma cell line NCI-H1975 expressing EGFR (T790M/L858R), 2) a lung adenocarcinoma cell line HCC827 expressing EGFR (d746-750), and 3) a human epidermoid carcinoma cell line A431 expressing EGFR (WT) were each suspended in the medium recommended by ATCC. The cell suspension was seeded in each well of a 384-well flat microplate or 96-well flat plate, and cultured in an incubator containing 5% carbon dioxide gas at 37° C. for one day. The compound of the present invention and the reference compound were dissolved in DMSO, and then the DMSO solution of each test compound was diluted with DMSO to a concentration 200 times higher than the final concentration. The diluted DMSO solution of the test compound was diluted with the medium used to suspend each cell line, and the diluted solution was added to each well of the cell culture plate so that the final concentration of DMSO was 0.5%. Then, the cells were cultured in an incubator containing 5% carbon dioxide gas at 37° C. for three days. The number of cells was measured at the time of initiation and termination of the culture by using a CellTiter-Glo Assay (produced by Promega) according to a protocol recommended by Promega. The cell growth inhibition rate was calculated by the following formula, and the concentration of the test compound at which the cell growth was inhibited by 50% (GI50 (nM)) was determined. Growth inhibition rate (%)=(C−T)/(C−C0)×100
as §2, §3, §4

The next test has as its target T4, EGFR (L858R) (Homo sapiens, UniProt P00533, L858R).
T4 construct: purchased Carna Biosciences, Inc
Put plainly: EGFR (L858R) kinase inhibitory activity (in vitro). The class given is biochemical. Particulars: recombinant human protein, ATP 4 μM. The procedure:
as §1
3) Measurement of EGFR (L858R) Kinase Inhibitory Activity
The inhibitory activities of the compounds I-1, I-2, I-3, I-4, I-5, I-6, I-7, I-8, and I-9 for EGFR (L858R) kinase were measured.
The materials were as follows. The EGFR (L858R) was a purified recombinant human EGFR (L858R) protein purchased from Carna Biosciences, Inc. The final concentration of ATP was 4 μM. As for other conditions, the same materials and methods as those used in the measurement of EGFR (T790M/L858R) kinase inhibitory activity were used to determine the IC50 value (nM) of each compound.

The subject of test [3] is human epidermoid carcinoma cell line A431 expressing EGFR (WT). The experiment in a line: Growth inhibitory activity, EGFR (WT)-expressing cell line. Particulars: for GI50: Homo sapiens, A-431, 72 h, three days culture, CellTiter-Glo; for growth-inhibitory activities for EGFR (WT)-expressing cells compared with cells expressing mutant EGFRs, in words: summary of Table 2. Type of test: cell-based. Here is the method: as §5, §2, §3, §4

The next test concerns the target T5, EGFR (d746-750) (Homo sapiens, UniProt P00533, DEL746-750).
T5 construct: purchased Carna Biosciences, Inc
The experiment in a line: EGFR (d746-750) kinase inhibitory activity (in vitro). The class given is biochemical. Particulars: recombinant human protein, ATP 5 μM, 90 minutes. Here is the method: as §1
4) Measurement of EGFR (d746-750) Kinase Inhibitory Activity
The inhibitory activities of the compounds I-1, I-2, I-3, I-4, I-5, I-6, I-7, I-8, and I-9 for EGFR (d746-750) kinase activity were measured.
The materials were as follows. The EGFR (d746-750) was a purified recombinant human EGFR (d746-750) protein purchased from Carna Biosciences, Inc. The final concentration of ATP was 5 μM. The incubation time for the kinase reaction was 90 minutes. As for other conditions, the same materials and methods as those used in the measurement of EGFR (T790M/L858R) kinase inhibitory activity were used to determine the IC50 value (nM) of each compound.

The structures appear in SMILES notation.

T1 sequence (P00533 669-1210 limits assumed): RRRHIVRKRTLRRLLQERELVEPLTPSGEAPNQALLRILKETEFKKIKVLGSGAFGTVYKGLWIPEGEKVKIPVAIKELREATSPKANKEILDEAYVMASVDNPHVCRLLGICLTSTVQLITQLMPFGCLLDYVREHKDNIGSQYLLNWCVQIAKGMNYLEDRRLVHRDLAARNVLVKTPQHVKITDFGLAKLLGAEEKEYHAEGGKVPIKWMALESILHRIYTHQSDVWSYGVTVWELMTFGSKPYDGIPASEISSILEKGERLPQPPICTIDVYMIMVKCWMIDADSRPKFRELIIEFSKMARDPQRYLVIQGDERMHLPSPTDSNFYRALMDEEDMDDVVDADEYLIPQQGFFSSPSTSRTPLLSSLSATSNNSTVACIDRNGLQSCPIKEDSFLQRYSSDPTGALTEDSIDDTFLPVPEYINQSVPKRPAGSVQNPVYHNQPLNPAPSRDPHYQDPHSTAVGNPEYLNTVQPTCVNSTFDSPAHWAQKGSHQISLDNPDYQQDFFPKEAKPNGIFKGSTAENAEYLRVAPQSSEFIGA
T3 sequence (P00533 25-1210 T790M/L858R): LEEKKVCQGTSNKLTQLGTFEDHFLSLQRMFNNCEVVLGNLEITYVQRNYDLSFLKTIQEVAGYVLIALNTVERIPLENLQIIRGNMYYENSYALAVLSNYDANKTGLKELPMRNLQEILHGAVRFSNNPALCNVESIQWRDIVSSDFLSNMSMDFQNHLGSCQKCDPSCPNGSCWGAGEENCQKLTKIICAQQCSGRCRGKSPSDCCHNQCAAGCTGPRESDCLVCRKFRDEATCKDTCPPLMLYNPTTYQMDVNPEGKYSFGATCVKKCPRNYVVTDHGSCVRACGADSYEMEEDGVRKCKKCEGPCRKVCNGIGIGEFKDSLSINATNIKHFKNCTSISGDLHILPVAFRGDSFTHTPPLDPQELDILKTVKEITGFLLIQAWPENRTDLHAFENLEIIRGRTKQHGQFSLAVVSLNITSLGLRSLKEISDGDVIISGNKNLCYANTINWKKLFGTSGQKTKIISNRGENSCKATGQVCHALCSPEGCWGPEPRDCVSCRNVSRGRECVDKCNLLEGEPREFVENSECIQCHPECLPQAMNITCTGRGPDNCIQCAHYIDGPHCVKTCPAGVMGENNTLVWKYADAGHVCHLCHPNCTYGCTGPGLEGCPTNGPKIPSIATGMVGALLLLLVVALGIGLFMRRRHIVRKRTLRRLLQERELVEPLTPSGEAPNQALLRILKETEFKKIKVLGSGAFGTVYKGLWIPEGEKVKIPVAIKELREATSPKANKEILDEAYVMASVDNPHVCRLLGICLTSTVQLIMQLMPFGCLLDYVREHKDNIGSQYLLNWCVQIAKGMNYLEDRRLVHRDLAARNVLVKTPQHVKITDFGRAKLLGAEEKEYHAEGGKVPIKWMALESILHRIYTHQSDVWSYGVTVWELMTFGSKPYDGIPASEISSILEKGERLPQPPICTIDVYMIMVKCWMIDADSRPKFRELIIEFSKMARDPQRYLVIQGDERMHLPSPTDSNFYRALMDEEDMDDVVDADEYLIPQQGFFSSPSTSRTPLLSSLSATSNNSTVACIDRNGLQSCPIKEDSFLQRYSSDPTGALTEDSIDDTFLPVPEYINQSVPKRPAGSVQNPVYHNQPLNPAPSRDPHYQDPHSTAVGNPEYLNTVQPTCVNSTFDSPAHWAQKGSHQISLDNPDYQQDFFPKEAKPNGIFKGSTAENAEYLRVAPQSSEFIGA
T4 sequence (P00533 25-1210 L858R): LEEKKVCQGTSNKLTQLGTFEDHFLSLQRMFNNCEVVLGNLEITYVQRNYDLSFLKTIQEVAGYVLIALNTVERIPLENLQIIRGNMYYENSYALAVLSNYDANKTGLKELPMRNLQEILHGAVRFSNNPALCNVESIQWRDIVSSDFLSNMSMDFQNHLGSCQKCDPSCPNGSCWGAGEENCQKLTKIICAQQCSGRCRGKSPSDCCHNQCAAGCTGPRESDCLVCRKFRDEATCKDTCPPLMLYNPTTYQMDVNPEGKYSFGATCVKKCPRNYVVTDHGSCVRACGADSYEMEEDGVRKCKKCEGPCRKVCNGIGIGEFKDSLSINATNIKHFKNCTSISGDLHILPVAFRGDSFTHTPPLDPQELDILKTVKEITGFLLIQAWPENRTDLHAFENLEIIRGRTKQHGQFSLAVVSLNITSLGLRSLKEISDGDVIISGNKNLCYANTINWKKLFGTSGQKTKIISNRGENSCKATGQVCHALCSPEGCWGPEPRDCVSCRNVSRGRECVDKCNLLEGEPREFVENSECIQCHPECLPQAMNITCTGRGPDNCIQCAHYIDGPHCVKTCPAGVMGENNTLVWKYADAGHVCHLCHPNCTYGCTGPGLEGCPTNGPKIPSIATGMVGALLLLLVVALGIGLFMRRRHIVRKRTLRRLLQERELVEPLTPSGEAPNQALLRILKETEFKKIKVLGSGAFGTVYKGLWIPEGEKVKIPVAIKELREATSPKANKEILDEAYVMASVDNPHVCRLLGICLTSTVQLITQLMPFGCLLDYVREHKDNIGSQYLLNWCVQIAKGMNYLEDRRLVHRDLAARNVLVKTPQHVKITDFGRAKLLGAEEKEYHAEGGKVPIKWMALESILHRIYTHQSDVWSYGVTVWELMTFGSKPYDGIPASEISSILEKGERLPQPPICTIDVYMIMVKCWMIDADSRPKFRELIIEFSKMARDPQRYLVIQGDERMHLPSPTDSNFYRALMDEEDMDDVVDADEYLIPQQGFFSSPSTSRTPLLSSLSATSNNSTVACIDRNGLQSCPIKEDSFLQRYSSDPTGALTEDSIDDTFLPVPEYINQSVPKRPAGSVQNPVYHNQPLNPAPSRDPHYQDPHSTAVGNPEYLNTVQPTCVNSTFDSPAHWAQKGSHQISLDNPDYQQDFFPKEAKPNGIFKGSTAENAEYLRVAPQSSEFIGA
T5 sequence (P00533 with tags, fused parts or gaps DEL746-750 limits assumed): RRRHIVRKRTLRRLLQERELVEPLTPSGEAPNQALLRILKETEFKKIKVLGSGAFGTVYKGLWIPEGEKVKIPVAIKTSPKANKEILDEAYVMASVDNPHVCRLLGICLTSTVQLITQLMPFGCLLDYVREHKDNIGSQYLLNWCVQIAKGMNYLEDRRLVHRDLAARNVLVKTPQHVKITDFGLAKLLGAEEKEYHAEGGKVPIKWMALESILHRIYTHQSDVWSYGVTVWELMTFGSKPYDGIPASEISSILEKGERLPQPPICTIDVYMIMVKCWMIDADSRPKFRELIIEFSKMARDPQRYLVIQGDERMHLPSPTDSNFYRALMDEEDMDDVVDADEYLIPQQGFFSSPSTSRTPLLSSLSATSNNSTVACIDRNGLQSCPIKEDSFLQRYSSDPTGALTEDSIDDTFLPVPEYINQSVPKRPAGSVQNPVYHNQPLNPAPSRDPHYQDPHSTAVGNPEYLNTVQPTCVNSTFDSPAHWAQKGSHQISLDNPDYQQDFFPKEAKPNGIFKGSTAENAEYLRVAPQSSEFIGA
T2 sequence (P00533 with tags, fused parts or gaps DEL746-750/T790M limits assumed): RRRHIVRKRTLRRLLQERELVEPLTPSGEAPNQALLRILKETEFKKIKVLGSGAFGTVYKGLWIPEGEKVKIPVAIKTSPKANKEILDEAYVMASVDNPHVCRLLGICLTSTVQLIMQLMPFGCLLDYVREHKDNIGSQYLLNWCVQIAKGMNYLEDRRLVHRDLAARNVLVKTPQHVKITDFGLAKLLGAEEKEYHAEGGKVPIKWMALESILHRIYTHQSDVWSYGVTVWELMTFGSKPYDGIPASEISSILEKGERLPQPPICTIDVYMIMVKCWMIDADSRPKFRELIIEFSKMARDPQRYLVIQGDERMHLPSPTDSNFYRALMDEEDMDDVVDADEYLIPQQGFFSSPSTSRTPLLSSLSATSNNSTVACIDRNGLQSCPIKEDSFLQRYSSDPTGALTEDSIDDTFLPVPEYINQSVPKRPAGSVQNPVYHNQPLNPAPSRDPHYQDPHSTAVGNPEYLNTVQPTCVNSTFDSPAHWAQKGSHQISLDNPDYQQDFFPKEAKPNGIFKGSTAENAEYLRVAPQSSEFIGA

One may read the IC50 as the midpoint of a concentration-inhibition curve. As usually defined, the GI50 is the concentration at which growth is held to half of that of the control. A higher GI50 goes with less potent growth inhibition. As for `C=CC(=O)N[C@H]1CCc2c(-c3cnc4ccccc4c3)c3c(N)ncnc3n2C1` (single isomer, unassigned) [Compound I-2], the IC50 against EGFR (WT) was 4.3 nM; at EGFR (d746-750/T790M), 0.2 nM; on EGFR (T790M/L858R), 0.3 nM; on EGFR (L858R), 0.4 nM; at EGFR (d746-750), 0.4 nM. Further, on EGFR (WT), the “inhibitory activities for EGFR (WT) compared with the mutant EGFR proteins, in words” value is recorded as “lower than those for the above mutant EGFR proteins”. Further, the GI50 in test [1] was determined as 5 nM; in test [2] it was 27 nM; in test [3], 590 nM. For the same compound, the “inhibitory activities for EGFR (L858R), EGFR (d746-750), EGFR (T790M/L858R) and EGFR (d746-750/T790M), in words” value on EGFR (T790M/L858R) was “potent inhibitory activities”. The “growth-inhibitory activities for EGFR (d746-750)-expressing and EGFR (T790M/L858R)-expressing cells, in words” value in test [2] is reported as “potent growth-inhibitory activities”. In addition, the “growth-inhibitory activities for EGFR (WT)-expressing cells compared with cells expressing mutant EGFRs, in words” value in test [3] was “weaker growth-inhibitory activities”.

For `C=CC(=O)N(C)C1CCc2c(-c3cnc4ccccc4c3)c3c(N)ncnc3n2C1` (stereo not drawn) [Compound I-3, N-(4-amino-5-(quinolin-3-yl)-6,7,8,9-tetrahydropyrimido[5,4-b]indolizin-8-yl)-N-methylacrylamide], the half-maximal inhibitory concentration (IC50) is 18 nM on EGFR (WT); 0.6 nM at EGFR (d746-750/T790M); 1.3 nM at EGFR (T790M/L858R); 1.3 nM at EGFR (L858R); 1 nM on EGFR (d746-750). For the same compound, the “inhibitory activities for EGFR (WT) compared with the mutant EGFR proteins, in words” value on EGFR (WT) is listed as “lower than those for the above mutant EGFR proteins”. The GI50 came to 10 nM in test [1], 86 nM in test [2] and 1800 nM in test [3]. At EGFR (T790M/L858R), the “inhibitory activities for EGFR (L858R), EGFR (d746-750), EGFR (T790M/L858R) and EGFR (d746-750/T790M), in words” value is listed as “potent inhibitory activities”. Also, the “growth-inhibitory activities for EGFR (d746-750)-expressing and EGFR (T790M/L858R)-expressing cells, in words” value in test [2] is “potent growth-inhibitory activities”. Besides, the “growth-inhibitory activities for EGFR (WT)-expressing cells compared with cells expressing mutant EGFRs, in words” value in test [3] was “weaker growth-inhibitory activities”.
